Consider 19 compounds from patent publication US12084458B2, “Substituted pyridines, pyridazines, and pyrimidines as TYK2 inhibitors” (Sudo Biosciences Limited, priority 2021, dated 2024).

Each structure is given as a SMILES string. Where two headings read alike, the source gives them in different places.

Holding throughout (assay type): cell-based
In experiment [1] the test system is HEK-Blue IFNγ reporter cells (IFNγ-stimulated STAT1 SEAP reporter). Kind of experiment: HEK-Blue IFNγ SEAP reporter assay for determining selectivity. Details: IFN-γ (SEAP selectivity, IC50): scale not given here. To be noted: 50 ng/mL human recombinant IFNγ; for IC50: read-out: IFN-γ (SEAP selectivity, IC50). The method, then:
(§1) Example B-3: HEK-Blue™ IL-2 and IFNγ Reporter Assays for Determining Selectivity
(§2) HEK-Blue™ IL-2 and IFNγ reporter cells with a stably-integrated cytokine receptor and STAT5 or STAT1 express STAT-inducible secreted embryonic alkaline phosphatase (SEAP) reporter gene upon cytokine stimulation. These cells were plated in DMEM (Gibco) containing 10% heat-inactivated FBS (Gibco) and 100 U/mL PenStrep (Gibco) at 37° C. under 5% CO2 conditions for 20-22 hours. The cells were then pretreated with serially diluted test compounds for 60 min prior to stimulation with either 4 ng/mL human recombinant IL-2 (Miltenyl Biotech) or 50 ng/mL human recombinant IFNγ (InvivoGen) for 24 hours. SEAP induction was measured using the QUANTI-Blue™ Solution (InvivoGen) according to the manufacturer's instructions.

Experiment [2] relates to HEK-Blue IL-2 reporter cells (IL-2-stimulated STAT5 SEAP reporter). Kind of experiment: HEK-Blue IL-2 SEAP reporter assay for determining selectivity. To be noted: 4 ng/mL human recombinant IL-2. Here is the method:
as §1, §2
(In general: Reporter assays use an easily measured gene product as a stand-in for the process of interest.)

Experiment [3] concerns HEK-Blue IFNα/β cells (IFNα-stimulated STAT1 SEAP reporter; TYK2 JH2). Kind of experiment: HEK-Blue IFNα/β SEAP reporter assay for profiling TYK2 pseudokinase (JH2) inhibition. To be noted: 1 ng/mL human recombinant IFNα, read-out: IFNα (TYK2 inhibitory activity, IC50). A digest of the protocol:
(§3)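 Reporter cells were seeded in DMEM/10% heat-inactivated FBS and cultured 20-22 h at 37 °C. Compounds, serially diluted, were applied for 60 min before human recombinant IL-23 (10 ng/mL, 22-24 h) or IFNα (1 ng/mL, 16-18 h) was added. Secreted alkaline phosphatase was then quantified with QUANTI-Blue.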

The test system of experiment [4] is HEK-Blue IL-23 cells (IL-23-stimulated STAT3 SEAP reporter; TYK2 JH2). The experiment in a line: HEK-Blue IL-23 SEAP reporter assay for profiling TYK2 pseudokinase (JH2) inhibition. To be noted: 10 ng/mL human recombinant IL-23, SEAP reporter, read-out: IL23 (TYK2 inhibitory activity, IC50). A digest of the protocol: as §3

A word on the IC50: it is the concentration that inhibits the measured activity by half. Consider `[2H]C([2H])([2H])NC(=O)c1nnc(NC(=O)C2CC2)cc1Nc1cccc2c1N(C)[C@@H](C)c1nc(C)nn1-2` (single isomer, unassigned) [Compound 22], for which the IC50 in experiment [1] (Homo sapiens, HEK-Blue) is 300 to 1000 nM; in experiment [2] it was > 1000 nM; in experiment [3] (Homo sapiens, HEK-Blue), < 30 nM; in experiment [4], < 30 nM.

Take `[2H]C([2H])([2H])NC(=O)c1nnc(NC(=O)C2CC2)cc1Nc1nccc2c1N(C)[C@H](C)c1nn(C)nc1-2` (single isomer, unassigned) [Compound 95]: the IC50 in experiment [1] (Homo sapiens, HEK-Blue) was > 1000 nM; in experiment [2], > 1000 nM; in experiment [3] (Homo sapiens, HEK-Blue), 30 to 300 nM; in experiment [4], < 30 nM.

As for `[2H]C([2H])([2H])NC(=O)c1nnc(NC(=O)C2CC2)cc1Nc1cccc2c1N(C)C([2H])([2H])c1nc(C)nn1-2` [Compound 35, 6-(cyclopropanecarboxamido)-4-((2,5-dimethyl-4,5-dihydro-[1,2,4]triazolo[1,5-a]quinoxalin-6-yl-4,4-d2)amino)-N-(methyl-d3)pyridazine-3-carboxamide], the IC50 in experiment [1] (Homo sapiens, HEK-Blue) was 30 to 300 nM; in experiment [2], > 1000 nM; in experiment [3] (Homo sapiens, HEK-Blue) it was < 30 nM; in experiment [4] it was < 30 nM.

In the case of `[2H]C([2H])([2H])NC(=O)c1cnc(NC(=O)NC)cc1Nc1cc(F)cc2c1N(C)Cc1nc(C)nn1-2` [Compound 101, 4-((8-fluoro-2,5-dimethyl-4,5-dihydro-[1,2,4]triazolo[1,5-a]quinoxalin-6-yl)amino)-N-(methyl-d3)-6-(3-methylureido)nicotinamide], the IC50 in experiment [1] (Homo sapiens, HEK-Blue) is > 1000 nM; in experiment [2], > 1000 nM; in experiment [3] (Homo sapiens, HEK-Blue), 300 to 1000 nM; in experiment [4], 30 to 300 nM.

`[2H]C([2H])([2H])NC(=O)c1nnc(NC(=O)C2CC2)cc1Nc1cc(F)cc2c1N(C)Cc1nc(C)nn1-2` [Compound 90, 6-(cyclopropanecarboxamido)-4-((8-fluoro-2,5-dimethyl-4,5-dihydro-[1,2,4]triazolo[1,5-a]quinoxalin-6-yl)amino)-N-(methyl-d3)pyridazine-3-carboxamide]: the IC50 is 30 to 300 nM in experiment [1] (Homo sapiens, HEK-Blue); > 1000 nM in experiment [2]; 30 to 300 nM in experiment [3] (Homo sapiens, HEK-Blue); < 30 nM in experiment [4].

Regarding `[2H]C([2H])([2H])NC(=O)c1cnc(NC(=O)C2CC2)cc1Nc1cccc2c1N(C)C([2H])([2H])c1nc(C)nn1-2` [Compound 36, 6-(cyclopropanecarboxamido)-4-((2,5-dimethyl-4,5-dihydro-[1,2,4]triazolo[1,5-a]quinoxalin-6-yl-4,4-d2)amino)-N-(methyl-d3)nicotinamide], the IC50 in experiment [1] (Homo sapiens, HEK-Blue) was 300 to 1000 nM; in experiment [2] it was > 1000 nM; in experiment [3] (Homo sapiens, HEK-Blue) it was < 30 nM; in experiment [4], < 30 nM.

For the compound `[2H]C([2H])([2H])NC(=O)c1nnc(NC(=O)[C@H]2CC2(F)F)cc1Nc1nccc2c1N(C)Cc1nn(C)nc1-2` [Compound 71, (R)-6-(2,2-difluorocyclopropane-1-carboxamido)-4-((2,5-dimethyl-4,5-dihydro-2H-[1,2,3]triazolo[4,5-c][1,7]naphthyridin-6-yl)amino)-N-(methyl-d3)pyridazine-3-carboxamide], the IC50 was 30 to 300 nM in experiment [1], > 1000 nM in experiment [2], < 30 nM in experiment [3] and < 30 nM in experiment [4].

For `[2H]C([2H])([2H])NC(=O)c1nnc(NC(=O)NC)cc1Nc1cccc2c1N(C)C([2H])([2H])c1nn(C)nc1-2` [Compound 54, 4-((2,5-dimethyl-4,5-dihydro-2H-[1,2,3]triazolo[4,5-c]quinolin-6-yl-4,4-d2)amino)-N-(methyl-d3)-6-(3-methylureido)pyridazine-3-carboxamide], the IC50 was 300 to 1000 nM in experiment [1] (Homo sapiens, HEK-Blue); > 1000 nM in experiment [2]; < 30 nM in experiment [3] (Homo sapiens, HEK-Blue); < 30 nM in experiment [4].

Turning to `[2H]C([2H])([2H])NC(=O)c1cnc(NC(=O)C2CC2)cc1Nc1cc(F)cc2c1N(C)[C@@H](C)c1nc(C)nn1-2` (single isomer, unassigned) [Compound 110], in experiment [1], the “IFN-γ (SEAP selectivity, IC50)” value was “C/D”. In addition, the IC50 was > 1000 nM in experiment [2]; 30 to 300 nM in experiment [3] (Homo sapiens, HEK-Blue); < 30 nM in experiment [4].

Take `[2H]C([2H])([2H])NC(=O)c1cnc(NC(=O)NC)cc1Nc1cccc2c1N(C)C([2H])([2H])c1nn(C)nc1-2` [Compound 63, 4-((2,5-dimethyl-4,5-dihydro-2H-[1,2,3]triazolo[4,5-c]quinolin-6-yl-4,4-d2)amino)-N-(methyl-d3)-6-(3-methylureido)nicotinamide]: the IC50 in experiment [1] (Homo sapiens, HEK-Blue) was > 1000 nM; in experiment [2] it was > 1000 nM; in experiment [3] (Homo sapiens, HEK-Blue), < 30 nM; in experiment [4] it was < 30 nM.

Consider `[2H]C([2H])([2H])NC(=O)c1cnc(Nc2cc(C)nc(C)n2)cc1Nc1cc(F)cc2c1N(C)Cc1nc(C)nn1-2` [Compound 102, 6-((2,6-dimethylpyrimidin-4-yl)amino)-4-((8-fluoro-2,5-dimethyl-4,5-dihydro-[1,2,4]triazolo[1,5-a]quinoxalin-6-yl)amino)-N-(methyl-d3)nicotinamide], for which the IC50 is 30 to 300 nM in experiment [1] (Homo sapiens, HEK-Blue); 300 to 1000 nM in experiment [2]; < 30 nM in experiment [3] (Homo sapiens, HEK-Blue); < 30 nM in experiment [4].

As for `[2H]C([2H])([2H])NC(=O)c1nnc(NC(=O)C2CC2)cc1Nc1ccc(F)c2c1N(C)Cc1nc(C)nn1-2` [Compound 105, 6-(cyclopropanecarboxamido)-4-((9-fluoro-2,5-dimethyl-4,5-dihydro-[1,2,4]triazolo[1,5-a]quinoxalin-6-yl)amino)-N-(methyl-d3)pyridazine-3-carboxamide], the IC50 is > 1000 nM in experiment [1] (Homo sapiens, HEK-Blue); > 1000 nM in experiment [2]; 30 to 300 nM in experiment [3] (Homo sapiens, HEK-Blue); < 30 nM in experiment [4].

As to `[2H]C([2H])([2H])NC(=O)c1nnc(NC(=O)NC)cc1Nc1nccc2c1N(C)Cc1nn(C)nc1-2` [Compound 108, 4-((2,5-dimethyl-4,5-dihydro-2H-[1,2,3]triazolo[4,5-c][1,7]naphthyridin-6-yl)amino)-N-(methyl-d3)-6-(3-methylureido)pyridazine-3-carboxamide], the 50% inhibitory concentration (IC50) was > 1000 nM in experiment [1] (Homo sapiens, HEK-Blue); 30 to 300 nM in experiment [2]; < 30 nM in experiment [3] (Homo sapiens, HEK-Blue); < 30 nM in experiment [4].

With `[2H]C([2H])([2H])NC(=O)c1nnc(NC(=O)C2CC2)cc1Nc1cccc2c1N(C)C1(CC1)c1nc(C)nn1-2` [Compound 39, 6-(cyclopropanecarboxamido)-4-((2′,5′-dimethyl-5′H-spiro[cyclopropane-1,4′-[1,2,4]triazolo[1,5-a]quinoxalin]-6′-yl)amino)-N-(methyl-d3)pyridazine-3-carboxamide], the IC50 in experiment [1] (Homo sapiens, HEK-Blue) was 300 to 1000 nM; in experiment [2], > 1000 nM; in experiment [3] (Homo sapiens, HEK-Blue), < 30 nM; in experiment [4] it was < 30 nM.

Take `[2H]C([2H])([2H])NC(=O)c1nnc(NC(=O)C2CC2)cc1Nc1nccc2c1N(C)[C@@H](C)c1nn(C)nc1-2` (single isomer, unassigned) [Compound 94]: the IC50 in experiment [1] (Homo sapiens, HEK-Blue) was 300 to 1000 nM; in experiment [2] it was > 1000 nM; in experiment [3] (Homo sapiens, HEK-Blue), < 30 nM; in experiment [4], < 30 nM.

With `[2H]C([2H])([2H])NC(=O)c1cnc(NC(=O)NC)cc1Nc1cccc2c1N(C)[C@@H](C)c1nn(C)nc1-2` (single isomer, unassigned) [Compound 55], the IC50 in experiment [1] (Homo sapiens, HEK-Blue) was > 1000 nM; in experiment [2], > 1000 nM; in experiment [3] (Homo sapiens, HEK-Blue), < 30 nM; in experiment [4] it was < 30 nM.

With `[2H]C([2H])([2H])NC(=O)c1nnc(NC(=O)NC)cc1Nc1cccc2c1N(C)[C@@H](C)c1nn(C)nc1-2` (single isomer, unassigned) [Compound 62], the IC50 in experiment [1] (Homo sapiens, HEK-Blue) is > 1000 nM; in experiment [2] it was > 1000 nM; in experiment [3] (Homo sapiens, HEK-Blue), < 30 nM; in experiment [4] it was < 30 nM.

As for `[2H]C([2H])([2H])NC(=O)c1cnc(NC(=O)C2CC2)cc1Nc1cccc2c1N(C)Cc1nn(C([2H])([2H])[2H])nc1-2` [Compound 49, 6-(cyclopropanecarboxamido)-N-(methyl-d3)-4-((5-methyl-2-(methyl-d3)-4,5-dihydro-2H-[1,2,3]triazolo[4,5-c]quinolin-6-yl)amino)nicotinamide], the IC50 in experiment [1] (Homo sapiens, HEK-Blue) was 30 to 300 nM; in experiment [2], > 1000 nM; in experiment [3] (Homo sapiens, HEK-Blue), < 30 nM; in experiment [4], < 30 nM.

In the case of `[2H]C([2H])([2H])NC(=O)c1cnc(NC(=O)NC)cc1Nc1cccc2c1N(C)Cc1nn(C)nc1-2` [Compound 50, 4-((2,5-dimethyl-4,5-dihydro-2H-[1,2,3]triazolo[4,5-c]quinolin-6-yl)amino)-N-(methyl-d3)-6-(3-methylureido)nicotinamide], the IC50 is > 1000 nM in experiment [1] (Homo sapiens, HEK-Blue); > 1000 nM in experiment [2]; < 30 nM in experiment [3] (Homo sapiens, HEK-Blue); < 30 nM in experiment [4].
